Measurements from publication PMC2802518 (Biochemistry, 2009).

What follows are molecules tested against T1, tCD14-His6 (truncated CD14) (Homo sapiens, UniProt P08571).
T1 sequence (P08571 20-175 limits assumed): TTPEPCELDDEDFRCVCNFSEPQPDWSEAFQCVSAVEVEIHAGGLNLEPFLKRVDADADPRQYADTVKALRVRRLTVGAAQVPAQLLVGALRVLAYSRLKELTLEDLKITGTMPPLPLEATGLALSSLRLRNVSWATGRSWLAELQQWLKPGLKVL
Assay type: binding
For `CCCCCCCCCCCCCCO[C@H]1[C@@H](OC)O[C@H](C[N+](C)(C)C2CCCC2)[C@@H](O)[C@@H]1OCCCCCCCCCCCCCC` [compound 1, methyl 6-deoxy-6-N-dimethyl-N-cyclopentylamonium-2,3-di-O-tetradecyl-α-D-glucopyranoside], the IC50 was 800 nM. `CCCCCCCCCCCCCCO[C@H]1[C@@H](OC)O[C@H](CN)[C@@H](O)[C@@H]1OCCCCCCCCCCCCCC` [compound 2, methyl 6-deoxy-6-amino-2,3-di-O-tetradecyl-α-D-glucopyranoside] showed an IC50 of 2000 nM. `CCCCCCCCCCCCCCOc1ccc(C[N+](C)(C)C2CCCC2)cc1OCCCCCCCCCCCCCC` [compound 3, N-(3,4-bis-tetradecyloxy-benzyl)-N-cyclopentyl-N,N-dimethylammonium] showed an IC50 of 400 nM.
